How the values were obtained:
[1] = tested on: normal skin of nu/nu nude mice; assay: Protoporphyrin IX production in the skin of mice by CCD microscopy of biopsies; type: in vivo; settings: 20% w/w cream
Procedure: A commercial oil-in-water cream containing (20% w/w) one of the chemicals (free ALA, ALA methylester, ALA ethylester and ALA propylester) (see Example 1) was topically applied to the normal skin of nu/nu nude mice for 0.5, 1, 3 and 6 hours, then biopsied and evaluated by means of microscopic fluorescence photometry incorporating a light-sensitive thermol-electrically cooled charge coupled device (CCD) camera. […] The fluorescence intensity of PpIX in the skin increased with the time of the application and the maximum amounts of the fluorescence were seen about 6 hours (the latest time point studied) after the application in all cases.

normal skin of nude mice [2] = assay: Fluorescence microscopy of mouse skin biopsies after topical application; type: in vivo; settings: 1 h after topical application
Procedure: Treatment procedure. One of the creams was painted on the normal skin at right flank region of each mouse, and covered by a semi-permeable dressing (3M, St Paul, Minn., USA) for various time intervals (from 0.25 to 24 h) before fluorescence measurements in situ or being biopsied for microscopic fluorescence imaging. About 0.2 g cream was applied to an approximate 2.25 cm^2 area of the skin. In the case of i.p. injection the mice were given ALA or its methylester at a dose of 150 mg/kg. At least three mice were used for each condition.
Fluorescence microscopy. After the creams were topically applied to the skin of mice for various times (as indicated above), the skin was biopsied and the frozen tissue sections were cut with a cryostat to a thickness of 8 μm. The fluorescence microscopy was carried out using an Axioplan microscope (Zeiss, Germany) with a 100 W mercury lamp. The fluorescence images were recorded by a light-sensitive thermoelectrically cooled charge coupled device (CCD) camera (resolution: 385×578 pixels with a dynamic range of 16 bits per pixel)(Astromed CCD 3200, Cambridge, UK) and hard copies on a video printer (Sony multiscan video printer UP-930). The filter combination used for detection of porphyrin fluorescence consisted of 390-440 nm excitation filter, a 460 nm beam splitter and a >600 nm emission filter.
II. […] The fluorescence intensity of the porphyrins increased with the time after the application.

[3] = tested on: BCC lesions and adjacent normal skin; assay: In vivo surface fluorescence of tumor tissue and adjacent normal skin by spectrofluorometer; set-up: species or system human; settings: after 24 hours, surface measurement
Procedure: (§1) In a person presenting multiple ulcero-nodular BCCs lesions were exposed to commercial oil-in-water creams containing either ALA alone (20 k w/w) or ALA methyl ester (20% w/w) (as described in Example 7) covered by a semi-permeable dressing for 24 hours. After removal of dressings and cream in vivo fluorescence was measured at the surface of tumor tissue and adjacent normal skin by means of a spectrofluorometer. Punch biopsies of the same areas were removed and samples were immediately immersed in liquid nitrogen. The tissue sections were cut with a cryostat microtome to a thickness of 8 μm. The localization pattern of the porphyrin fluorescence in the tissue sections was directly observed by means of fluorescence microscopy. The same frozen sections were subsequently stained with routine H&E staining for histological identification.

[4] = tested on: BCC lesions and adjacent normal skin; assay: Control one week after treatment (cream and light irradiation) of BCC patient; type: in vivo, human
[5] = tested on: basal cell carcinoma (BCC) lesions and surrounding normal skin; assay: PpIX fluorescence in human BCC and surrounding normal skin by optical-fiber based system; type: in vivo
Procedure: The PpIX fluorescence in the BCC lesions and surrounding normal skin of human patients was measured in situ by optical-fiber based system after topical application of 20% free ALA and its derivatives for various time intervals.
The PpIX fluorescence ratios between BCC lesions and surrounding normal skin after topical application of ALA or its esters (20% for 4 hours), was examined using methods described in previous examples.

normal skin of nude mice [6] = assay: In situ measurement of PpIX fluorescence in the skin of mice by an optical-fiber-based system; type: in vivo; settings: intraperitoneal injection, 150 mg/kg
[7] = tested on: BCC lesions and surrounding normal skin; assay: PpIX production in human BCC and surrounding normal skin by CCD microscopy of biopsies; type: in vivo
Procedure: as §1, with “In a person presenting multiple ulcero-nodular BCCs lesions were exposed to commercial oil-in-water creams containing either ALA alone (20 k w/w) or ALA methyl ester (20% w/w) (as described in Example 7) covered by a semi-permeable dressing for 24 hours.” left out
The same sections were subsequently stained with routine H&E staining for histological identification. Fluorescence microscopy was carried out with an Axioplan microscope (Zeiss, Germany). Fluorescence images and quantitative measurements were performed by a light-sensitive thermol-electrically cooled charge coupled device (CCD) camera (Astromed CCD 3200, Cambridge, UK) and an image processing unit (Astromed/Visilog, PC 486DX2 66 MHz VL). The main purpose for such quantitative measurements is to determine the exact penetration of ALA-induced porphyrins from tissue surface to the bottom layers of cancer lesions. The results are shown in FIGS. 8 and 9 in which the fluorescence intensity is expressed as a function of depth of cancer lesion.
The tests were performed as described in Example 11.
Each of the following figures show both (A) fluorescence images of either the bottom layer of BCC lesions or of the surrounding normal skin. Curves indicating the fluorescence intensity as a function of depth of the BCC lesions or of the normal skin are also shown (B).

[8] = tested on: WiDr human colonic carcinoma; assay: PDT effect on tumor growth in WiDr human colonic carcinoma-transplanted nude mice; type: in vivo; settings: with DF and DMSO
Procedure: Nude mice were transplanted with WiDr human colonic carcinoma cells by subcutaneous injection into the right flank region. […] The responses of the treated tumors were evaluated as tumor regression/regrowth time. When the tumors reached a volume 5 times that of the volume on the day of light irradiation, the mice were killed. (Bars: standard error of mean (SEM) based on 3-5 individual animals in each group).

[9] = topical application for 4.5 hours
[10] = topical application for 24 hours

COC(=O)CCC(=O)CN.Cl [ALA methylester, methyl 5-aminolevulinate hydrochloride]
time after topical application at which conversion into protoporphyrin IX (PpIX) is seen ([1]; normal skin of nu/nu nude mice): 0.5 h
time of maximum PpIX fluorescence after application ([1]; topical, 6 hours was the latest time point studied): about 6 hours
localization of porphyrin fluorescence in mouse skin (normal skin of nude mice [2]): fluorescence in the epidermis (Ep), epithelial hair follicles and sebaceous gland (arrows), but not in the dermis (De)
in vivo fluorescence intensity in tumors compared to ALA [3]: at least doubled fluorescence intensity
increase of in vivo fluorescence in corresponding normal tissues compared to ALA [3]: about 50%
erythema in adjacent normal skin exposed to cream and light irradiation [4]: only moderate erythema
tumor response in treatment fields [4]: central necrotic area corresponding to the tumor
PpIX fluorescence ratios between BCC lesions and surrounding normal skin (selectivity) compared with free ALA ([5]; 20% for 4 hours, topical): more selectively induce PpIX in BCC lesions than free ALA
PpIX build-up, amount and localization in BCC lesions compared to free ALA ([5]; 20% topical, various time intervals, human patients): built up faster, produced more and localized more selectively in the BCC lesions
decrease of skin fluorescence compared with free ALA (normal skin of nude mice [6]): the fluorescence decreased faster in the case of the ester than in the case of the free ALA
time at which PpIX fluorescence disappeared post injection (normal skin of nude mice [6]): ≤ 10 h
time at which PpIX fluorescence in the skin was built up after injection (normal skin of nude mice [6]): 15 min
time of peak PpIX fluorescence in the skin after injection (normal skin of nude mice [6]): around 4 hours
PpIX fluorescence in the surrounding normal skin ([7]; 20% w/w cream, 24 hours): no PpIX fluorescence was seen in the surrounding normal skin
distribution of PpIX fluorescence from top to bottom of BCC lesions ([7]; 20% w/w cream, 24 hours, patient): homogeneous distribution of PpIX fluorescence
distribution of porphyrin fluorescence in the bottom layer of BCC [7, 9]: homogenous distribution
fluorescence intensity ratio between BCC and normal skin [7, 9]: about 2
porphyrin fluorescence/production in BCC, ALA methyl ester versus free ALA and 20% DMSO [7, 9]: higher than that induced by free ALA and 20% DMSO
distribution of porphyrin fluorescence in the bottom layer of BCC and surrounding normal skin [7, 10]: uniform distribution
fluorescence intensity ratio between BCC and normal skin [7, 10]: about 2
porphyrin fluorescence/production in BCC, ALA methyl ester versus free ALA alone [7, 10]: almost twice as high
slowing of tumor regrowth compared with ALA [8]: more effective than ALA in slowing tumor regrowth

Source: patent US7530461B2, “Esters of 5-aminolevulinic acid as photosensitizing agents in photochemotherapy” (PhotoCure ASA, priority 1995, dated 2009)
